# Reference: ChEMBL document CHEMBL4706519, “Evaluation of N-phenyl-2-aminothiazoles for treatment of multi-drug resistant and intracellular Staphylococcus aureus infections” (Eur J Med Chem, 2020)
# Columns and labels:
# [1] = system: Staphylococcus aureus; assay: Antibacterial activity against methicillin-resistant Staphylococcus aureus USA300 NRS384 assessed as inhibition of bacterial growth measured after 18 to 20 hrs by broth microdilution method; assay type: functional; conditions: time 18-20 hrs
# [2] = system: Escherichia coli; assay: Antibacterial activity against Escherichia coli JW55031 harboring toIC efflux mutant assessed as inhibition of bacterial growth measured after 18 to 20 hrs by broth microdilution method; assay type: functional; conditions: time 18-20 hrs
# [3] = system: Escherichia coli; assay: Antibacterial activity against wild type Escherichia coli BW25113 assessed as inhibition of bacterial growth measured after 18 to 20 hrs by broth microdilution method; assay type: functional; conditions: time 18-20 hrs
# [4] = system: Streptococcus pneumoniae; assay: Ratio of MBC to MIC for cephalosporin-resistant Streptococcus pneumoniae ATCC 51916 assessed as inhibition of bacterial growth measured after 18 to 20 hrs by CLSI protocol based broth microdilution method; assay type: functional; conditions: time 18-20 hrs
# [5] = system: Listeria monocytogenes; assay: Ratio of MBC to MIC for Listeria monocytogenes ATCC 19111 assessed as inhibition of bacterial growth measured after 18 to 20 hrs by CLSI protocol based broth microdilution method; assay type: functional; conditions: time 18-20 hrs
# [6] = system: Enterococcus faecium; assay: Ratio of MBC to MIC for vancomycin-resistant Enterococcus faecium ATCC 700221 assessed as inhibition of bacterial growth measured after 18 to 20 hrs by CLSI protocol based broth microdilution method; assay type: functional; conditions: time 18-20 hrs
# [7] = system: Enterococcus faecalis; assay: Ratio of MBC to MIC for vancomycin-resistant Enterococcus faecalis ATCC 51299 assessed as inhibition of bacterial growth measured after 18 to 20 hrs by CLSI protocol based broth microdilution method; assay type: functional; conditions: time 18-20 hrs
# [8] = system: Staphylococcus aureus; assay: Ratio of MBC to MIC against methicillin-sensitive Staphylococcus aureus ATCC 6538 assessed as inhibition of bacterial growth measured after 18 to 20 hrs by CLSI broth microdilution method; assay type: functional; conditions: time 18-20 hrs
# [9] = system: Staphylococcus aureus; assay: Antibacterial activity against vancomycin-resistant Staphylococcus aureus 10 assessed as inhibition of bacterial growth measured after 18 to 20 hrs by CLSI protocol based broth microdilution method; assay type: functional; conditions: time 18-20 hrs
# [10] = system: Staphylococcus epidermidis; assay: Ratio of MBC to MIC for methicillin-resistant Staphylococcus epidermidis NRS101 assessed as inhibition of bacterial growth measured after 18 to 20 hrs by CLSI protocol based broth microdilution method; assay type: functional; conditions: time 18-20 hrs
# [11] = system: Staphylococcus aureus; assay: Antibacterial activity against vancomycin-resistant Staphylococcus aureus 12 assessed as inhibition of bacterial growth measured after 18 to 20 hrs by CLSI protocol based broth microdilution method; assay type: functional; conditions: time 18-20 hrs
# [12] = system: Staphylococcus epidermidis; assay: Antibacterial activity against methicillin-resistant Staphylococcus epidermidis NRS101 assessed as inhibition of bacterial growth measured after 18 to 20 hrs by CLSI protocol based broth microdilution method; assay type: functional; conditions: time 18-20 hrs
# [13] = system: Enterococcus faecium; assay: Antibacterial activity against vancomycin-resistant Enterococcus faecium ATCC 700221 assessed as inhibition of bacterial growth measured after 18 to 20 hrs by CLSI protocol based broth microdilution method; assay type: functional; conditions: time 18-20 hrs
# [14] = system: Listeria monocytogenes; assay: Antibacterial activity against Listeria monocytogenes ATCC 19111 assessed as inhibition of bacterial growth measured after 18 to 20 hrs by CLSI protocol based broth microdilution method; assay type: functional; conditions: time 18-20 hrs
# [15] = system: Streptococcus pneumoniae; assay: Antibacterial activity against cephalosporin-resistant Streptococcus pneumoniae ATCC 51916 assessed as inhibition of bacterial growth measured after 18 to 20 hrs by CLSI protocol based broth microdilution method; assay type: functional; conditions: time 18-20 hrs
# [16] = system: Streptococcus pneumoniae; assay: Antibacterial activity against methicillin-resistant Streptococcus pneumoniae ATCC 700677 assessed as inhibition of bacterial growth measured after 18 to 20 hrs by CLSI protocol based broth microdilution method; assay type: functional; conditions: time 18-20 hrs
# [17] = system: Staphylococcus aureus; assay: Ratio of MBC to MIC against methicillin-sensitive Staphylococcus aureus NRS107 assessed as inhibition of bacterial growth measured after 18 to 20 hrs by CLSI protocol based broth microdilution method; assay type: functional; conditions: time 18-20 hrs
# [18] = system: Staphylococcus aureus; assay: Bactericidal activity against methicillin-resistant Staphylococcus aureus USA400 NRS123 assessed as log reduction in viable bacteria count at 5 times MIC incubated for 2 hrs in soy broth followed by incubation for 18 to 20 hrs on agar plate by time kill assay; assay type: functional; conditions: time 20-22 hrs
# [19] = system: Staphylococcus aureus; assay: Bactericidal activity against methicillin-resistant Staphylococcus aureus USA400 NRS123 assessed as post-antibiotic effect at 5 times MIC incubated for 2 hrs followed by compound wash-out by viable plate count method; assay type: functional
# [20] = Cytotoxicity against human Caco-2 cells assessed as cell viability at 32 ug/ml incubated for 2 hrs by MTS assay relative to control; assay type: cell-based; conditions: at 32 µg/mL, read-out: Activity
# [21] = Selectivity index, ratio of maximum non-toxic concentration for human Caco-2 cells to MIC for methicillin-resistant Staphylococcus aureus USA500 NRS385; assay type: toxicity
# [22] = Selectivity index, ratio of maximum non-toxic concentration for human Caco-2 cells to MIC for methicillin-resistant Staphylococcus aureus USA400 NRS123; assay type: toxicity
# [23] = Selectivity index, ratio of maximum non-toxic concentration for human Caco-2 cells to MIC for methicillin-resistant Staphylococcus aureus NRS119; assay type: toxicity
# [24] = Selectivity index, ratio of maximum non-toxic concentration for human Caco-2 cells to MIC for methicillin-resistant Staphylococcus aureus USA300 NRS384; assay type: toxicity
# [25] = system: Staphylococcus aureus; assay: Antibacterial activity against methicillin-resistant Staphylococcus aureus USA400 NRS123 infected in mouse J774 cells assessed as reduction in intracellular bacterial burden at 2 x MIC measured after 24 hrs relative to control; assay type: functional
# [26] = system: Staphylococcus aureus; assay: Antibacterial activity against methicillin-resistant Staphylococcus aureus USA400 NRS123 infected in mouse J774 cells assessed as reduction in intracellular bacterial burden at 4 x MIC measured after 24 hrs relative to control; assay type: functional
# [27] = system: Streptococcus pneumoniae; assay: Ratio of MBC to MIC for methicillin-resistant Streptococcus pneumoniae ATCC 700677 assessed as inhibition of bacterial growth measured after 18 to 20 hrs by CLSI protocol based broth microdilution method; assay type: functional; conditions: time 18-20 hrs
# [28] = system: Staphylococcus aureus; assay: Bactericidal activity against methicillin-resistant Staphylococcus aureus USA400 NRS123 assessed as eradication of bacterial count at 5 times MIC incubated for 2 hrs in soy broth followed by incubation for 18 to 20 hrs on agar plate by time kill assay; assay type: functional; conditions: time 20-22 hrs
# [29] = Selectivity index, ratio of maximum non-toxic concentration for human Caco-2 cells to MIC for methicillin-resistant Staphylococcus aureus USA700 NRS386; assay type: toxicity
# [30] = system: J774; assay: Cytotoxicity against mouse J774 cells assessed as cell viability at 32 ug/ml incubated for 2 hrs by MTS assay; assay type: cell-based; conditions: j774, 2 h, dose 32 µg/ml
# [31] = system: Staphylococcus aureus; assay: Antibacterial activity against methicillin-resistant Staphylococcus aureus USA400 NRS123 infected in mouse J774 cells assessed as log reduction in intracellular bacterial burden at 2 x MIC measured after 24 hrs; assay type: functional
# [32] = system: Staphylococcus aureus; assay: Antibacterial activity against methicillin-resistant Staphylococcus aureus USA400 NRS123 infected in mouse J774 cells assessed as log reduction in intracellular bacterial burden at 4 x MIC measured after 24 hrs; assay type: functional
# [33] = system: Staphylococcus aureus; assay: Ratio of MIC for methicillin-resistant Staphylococcus aureus USA400 NRS123 measured after 7th passage to MIC for methicillin-resistant Staphylococcus aureus USA400 NRS123 measured after 18 to 20 hrs by broth microdilution assay; assay type: functional
# [34] = system: Staphylococcus aureus; assay: Ratio of MIC for methicillin-resistant Staphylococcus aureus USA400 NRS123 measured after 14th passage to MIC for methicillin-resistant Staphylococcus aureus USA400 NRS123 measured after 18 to 20 hrs by broth microdilution assay; assay type: functional
# [35] = system: Staphylococcus aureus; assay: microbe, parasite or virus in culture; conditions: ATCC 6538
# [36] = system: Staphylococcus aureus; assay: microbe, parasite or virus in culture; conditions: NRS107
# [37] = system: Staphylococcus aureus; assay: microbe, parasite or virus in culture; conditions: NRS119
# [38] = system: Staphylococcus aureus; assay: microbe, parasite or virus in culture; conditions: USA400 NRS123
# [39] = system: Staphylococcus aureus; assay: microbe, parasite or virus in culture; conditions: USA500 NRS385
# [40] = system: Staphylococcus aureus; assay: microbe, parasite or virus in culture; conditions: USA700 NRS386
# [41] = system: Enterococcus faecalis; assay: microbe, parasite or virus in culture; conditions: ATCC 51299
smiles,measurement,setting,value
C/C(=N\NC(=N)N)c1ccc(Nc2nc(-c3ccc(Cl)cc3)cs2)cc1,MIC,[1],4 µg/mL
same,MIC,[2],8 µg/mL
same,MIC,[3],8 µg/mL
same,Ratio,[4],1
same,Ratio,[5],1
same,Ratio,[6],1
same,Ratio,[7],1
same,Ratio,[8],1
same,MBC,[9],1 µg/mL
same,MIC,[9],1 µg/mL
same,Ratio,[10],1
same,MBC,[11],1 µg/mL
same,MIC,[11],1 µg/mL
same,MBC,[12],1 µg/mL
same,MIC,[12],1 µg/mL
same,MBC,[13],2 µg/mL
same,MIC,[13],1 µg/mL
same,MBC,[14],2 µg/mL
same,MIC,[14],1 µg/mL
same,MBC,[15],4 µg/mL
same,MIC,[15],2 µg/mL
same,MBC,[16],4 µg/mL
same,MIC,[16],2 µg/mL
same,Ratio,[17],1
same,Activity,[18],3 log10CFU/ml
same,PAE,[19],4 h
same,"viability at 2 h, 32 ug/ml",[20],100%
same,selectivity ratio,[21],16
same,selectivity ratio,[22],16
same,selectivity ratio,[23],16
same,selectivity ratio,[24],16
same,inhibition (INH),[25],69%
same,inhibition (INH),[26],97%
same,Ratio,[27],1
same,Activity,[28],100%
same,selectivity ratio,[29],16
same,Activity,[30],Non-Toxic
same,Activity,[31],0.51 log10CFU/ml
same,Activity,[32],1.56 log10CFU/ml
same,Ratio,[33],1
same,Ratio,[34],3
same,MBC,[35],1 µg/mL
same,MIC,[35],1 µg/mL
same,MBC,[36],1 µg/mL
same,MIC,[36],1 µg/mL
same,MBC,[37],1 µg/mL
same,MIC,[37],1 µg/mL
same,MBC,[38],1 µg/mL
same,MIC,[38],1 µg/mL
same,MBC,[39],2 µg/mL
same,MIC,[39],1 µg/mL
same,MBC,[40],4 µg/mL
same,MIC,[40],1 µg/mL
same,MBC,[41],4 µg/mL
same,MIC,[41],1 µg/mL
